Patent US8940768B2, “Antifungal triazole derivatives” (Daewoong Pharmaceutical Co., Ltd., priority 2010, dated 2015)

System: Candida albicans
Test: in vitro antifungal activity (MIC80), Candida albicans
Assay type: cell-based
Conditions: 80% growth inhibition vs negative control, RPMI 1640, read 24 hrs after application, Table 2, read-out: Antifungal Activity (MIC80) Candida albicans
Description: The compounds of the present invention were evaluated for inhibitory activity against yeast molds including Candida albicans, Candida glabrata, Candida krusei, Candida tropicalis, Candida parapsilosis, and Cryptococcus neoformans, and filamentous fungi including Aspergillus fumigatus, Trichophyton mentagrophytes (obtained from KCTC (Korean Collection for Type Cultures), and Trichophyton rubrum (obtained from KCCM (Korean Culture Center of Microorganisms). All the strains, but Trichophyton mentagrophytes and Trichophyton rubrum, were purchased from the ATCC (American Type Culture Collection).
Of the strains used in this test, Candida albicans, Candida glabrata, Candida krusei, Candida tropicalis, Candida parapsilosis, Trichophyton mentagrophytes and Trichophyton rubrum were inoculated into sabouraud dextrose agars (Difco, BD-0109), Cryptococcus neoformans into a yeast mold agar (YM agar, Difco, 271210), and Aspergillus fumigatus into a malt extract agar (Difco, 211220), before incubation at 35° C. for two to ten days.
From the agars on which the yeast molds were grown, single colonies were picked up, and each was sufficiently suspended in 5 mL of already prepared, 0.85% sterile saline. After correction of the absorbance to 0.108 at 530 nm, each of the suspensions was diluted to a ratio of 1:50 in an RPMI (Roswell park memorial institute) 1640 medium and then to a ratio of 1:20 to prepare an inoculum having a cell density of from 1.0×10^3 to 5.0×10^3CFU/mL. The cell density was adjusted into […]˜5.0×10^4 CFU/mL for Aspergillus fumigates and 0.4×10^4˜5.0×10^4 CFU/mL for both Trichophyton mentagrophytes and Trichophyton rubrum.
The antifungal agent samples were prepared by diluting the active compounds in an RPMI 1640 medium to a serial density of from 0.0156 to 32 μg/mL. In this context, dimethylsulfoxide (DMSO) was used as an excipient at a final concentration of 1% (v/v). The serial dilutions were aliquoted at a volume of 0.1 mL and applied to 0.1 mL of the aliquots of each inoculum, followed by incubation.
With the naked eyes, an observation was made of all of the yeast molds, but Cryptococcus neoformans 24 hrs after the application, Cryptococcus neoformans and Aspergillus fumigatus 48 hrs after the application, and Trichophyton mentagrophytes and Trichophyton rubrum five days after the application to examine whether the fungi grew or not. In addition, Alamarblue™ as used to determine the concentrations of the compounds of the present invention at which the growth of the microorganisms was 80% inhibited compared to that of the negative control. All experiments were performed in duplicate for each of the test concentration groups.

SMILES | MIC80 [µg/mL]
C[C@@H](N1CCC(Oc2ccccc2F)CC1)[C@](O)(Cn1cncn1)c1ccc(F)cc1F [Example 3, (2R,3R)-2-(2,4-difluorophenyl)-3-(4-(2-fluorophenoxy)piperidin-1-yl)-1-(1H-1,2,4-triazol-1-yl)butan-2-ol] | ≤ 0.015
C[C@@H](N1CCC(Oc2ccc(C#N)cc2)CC1)[C@](O)(Cn1cncn1)c1ccc(F)cc1F [Example 16, 4-((1-((2R,3R)-3-(2,4-difluorophenyl)-3-hydroxy-4-(1H-1,2,4-triazol-1-yl)butan-2-yl)piperidin-4-yl)oxy)benzonitrile] | ≤ 0.015
C[C@@H](N1CCC(Oc2ccc(F)cn2)CC1)[C@](O)(Cn1cncn1)c1ccc(F)cc1F [Example 25, (2R,3R)-2-(2,4-difluorophenyl)-3-(4-((5-fluoropyridin-2-yl)oxy)piperidin-1-yl)-1-(1H-1,2,4-triazol-1-yl)butan-2-ol] | ≤ 0.015
C[C@@H](N1CCC(Oc2ccc(Cl)cn2)CC1)[C@](O)(Cn1cncn1)c1ccc(F)cc1F [Example 26, (2R,3R)-3-(4-((5-chloropyridin-2-yl)oxy)piperidin-1-yl)-2-(2,4-difluorophenyl)-1-(1H-1,2,4-triazol-1-yl)butan-2-ol] | ≤ 0.015
C[C@@H](N1CCC(Oc2ncc(F)cn2)CC1)[C@](O)(Cn1cncn1)c1ccc(F)cc1F [Example 30, (2R,3R)-2-(2,4-difluorophenyl)-3-(4-((5-fluoropyrimidin-2-yl)oxy)piperidin-1-yl)-1-(1H-1,2,4-triazol-1-yl)butan-2-ol] | ≤ 0.015
C[C@@H](N1CCC(Nc2ccccc2)CC1)[C@](O)(Cn1cncn1)c1ccc(F)cc1F [Example 35, (2R,3R)-2-(2,4-difluorophenyl)-3-(4-(phenylamino)piperidin-1-yl)-1-(1H-1,2,4-triazol-1-yl)butan-2-ol] | ≤ 0.015
C[C@@H](N1CCC(Nc2ccc(F)cc2)CC1)[C@](O)(Cn1cncn1)c1ccc(F)cc1F [Example 38, (2R,3R)-2-(2,4-difluorophenyl)-3-(4-((4-fluorophenyl)amino)piperidin-1-yl)-1-(1H-1,2,4-triazol-1-yl)butan-2-ol] | ≤ 0.015
C[C@@H](N1CCC(Nc2ccc(C(F)(F)F)cc2)CC1)[C@](O)(Cn1cncn1)c1ccc(F)cc1F [Example 46, (2R,3R)-2-(2,4-difluorophenyl)-1-(1H-1,2,4-triazol-1-yl)-3-(4-((4-(trifluoromethyl)phenyl)amino)piperidin-1-yl)butan-2-ol] | ≤ 0.015
C[C@@H](N1CCC(Nc2ccc(C#N)cc2)CC1)[C@](O)(Cn1cncn1)c1ccc(F)cc1F [Example 49, 4-((1-((2R,3R)-3-(2,4-difluorophenyl)-3-hydroxy-4-(1H-1,2,4-triazol-1-yl)butan-2-yl)piperidin-4-yl)amino)benzonitrile] | ≤ 0.015
C[C@@H](N1CCC(Nc2ncc(C(F)(F)F)cc2Cl)CC1)[C@](O)(Cn1cncn1)c1ccc(F)cc1F [Example 60, (2R,3R)-3-(4-((3-chloro-5-(trifluoromethyl)pyridin-2-yl)amino)piperidin-1-yl)-2-(2,4-difluorophenyl)-1-(1H-1,2,4-triazol-1-yl)butan-2-ol] | ≤ 0.015
C[C@@H](N1CCC(Nc2ncccn2)CC1)[C@](O)(Cn1cncn1)c1ccc(F)cc1F [Example 62, (2R,3R)-2-(2,4-difluorophenyl)-3-(4-(pyrimidin-2-ylamino)piperidin-1-yl)-1-(1H-1,2,4-triazol-1-yl)butan-2-ol] | ≤ 0.015
C[C@@H](N1CCC(Nc2ncc(Br)cn2)CC1)[C@](O)(Cn1cncn1)c1ccc(F)cc1F [Example 64, (2R,3R)-3-(4-((5-bromopyrimidin-2-yl)-amino)piperidin-1-yl)-2-(2,4-difluorophenyl)-1-(1H-1,2,4-triazol-1-yl)butan-2-ol] | ≤ 0.015
C[C@@H](N1CCC(N(C)c2ccccc2)CC1)[C@](O)(Cn1cncn1)c1ccc(F)cc1F [Example 67, (2R,3R)-2-(2,4-difluorophenyl)-3-(4-(methyl(phenyl)amino)piperidin-1-yl)-1-(1H-1,2,4-triazol-1-yl)butan-2-ol] | ≤ 0.015
C[C@@H](N1CCC(N(C)c2ccc(F)cc2)CC1)[C@](O)(Cn1cncn1)c1ccc(F)cc1F [Example 70, (2R,3R)-2-(2,4-difluorophenyl)-3-(4-((4-fluorophenyl)(methyl)amino)piperidin-1-yl)-1-(1H-1,2,4-triazol-1-yl)butan-2-ol] | ≤ 0.015
C[C@@H](N1CCC(N(C)c2ccc(Cl)cc2)CC1)[C@](O)(Cn1cncn1)c1ccc(F)cc1F [Example 73, (2R,3R)-3-(4-((4-chlorophenyl)(methyl)amino)piperidin-1-yl)-2-(2,4-difluorophenyl)-1-(1H-1,2,4-triazol-1-yl)butan-2-ol] | ≤ 0.015
C[C@@H](N1CCC(N(C)c2ccc(C(F)(F)F)cc2)CC1)[C@](O)(Cn1cncn1)c1ccc(F)cc1F [Example 79, (2R,3R)-2-(2,4-difluorophenyl)-3-(4-(methyl(4-(trifluoromethyl)phenyl)amino)piperidin-1-yl)-1-(1H-1,2,4-triazol-1-yl)butan-2-ol] | ≤ 0.015
C[C@@H](N1CCC(N(C)c2ccc(C#N)cc2)CC1)[C@](O)(Cn1cncn1)c1ccc(F)cc1F [Example 82, 4-((1-((2R,3R)-3-(2,4-difluorophenyl)-3-hydroxy-4-(1H-1,2,4-triazol-1-yl)butan-2-yl)piperidin-4-yl)(methyl)amino)benzonitrile] | ≤ 0.015
C[C@@H](OC1CCN(c2ncccn2)CC1)[C@](O)(Cn1cncn1)c1ccc(F)cc1F [Example 89, (2R,3R)-2-(2,4-difluorophenyl)-3-((1-(pyrimidin-2-yl)piperidin-4-yl)oxy)-1-(1H-1,2,4-triazol-1-yl)butan-2-ol] | ≤ 0.015
C[C@@H](OC1CCN(c2ccccc2)CC1)[C@](O)(Cn1cncn1)c1ccc(F)cc1F [Example 90, (2R,3R)-2-(2,4-difluorophenyl)-3-((1-phenylpiperidin-4-yl)oxy)-1-(1H-1,2,4-triazol-1-yl)butan-2-ol] | ≤ 0.015
C[C@@H](OC1CCN(c2ccc(F)cc2)CC1)[C@](O)(Cn1cncn1)c1ccc(F)cc1F [Example 93, (2R,3R)-2-(2,4-difluorophenyl)-3-((1-(4-fluorophenyl)piperidin-4-yl)oxy)-1-(1H-1,2,4-triazol-1-yl)butan-2-ol] | ≤ 0.015
C[C@@H](OC1CCN(c2ccc(Cl)cc2)CC1)[C@](O)(Cn1cncn1)c1ccc(F)cc1F [Example 96, (2R,3R)-3-((1-(4-chlorophenyl)piperidin-4-yl)oxy)-2-(2,4-difluorophenyl)-1-(1H-1,2,4-triazol-1-yl)butan-2-ol] | ≤ 0.015
C[C@@H](OC1CCN(c2ccc(C(F)(F)F)cc2)CC1)[C@](O)(Cn1cncn1)c1ccc(F)cc1F [Example 102, (2R,3R)-2-(2,4-difluorophenyl)-1-(1H-1,2,4-triazol-1-yl)-3-((1-(4-(trifluoromethyl)phenyl)piperidin-4-yl)oxy)butan-2-ol] | ≤ 0.015
C[C@@H](OC1CCN(c2ccc(C#N)cc2)CC1)[C@](O)(Cn1cncn1)c1ccc(F)cc1F [Example 105, 4-(4-(((2R,3R)-3-(2,4-difluorophenyl)-3-hydroxy-4-(1H-1,2,4-triazol-1-yl)butan-2-yl)oxy)piperidin-1-yl)benzonitrile] | ≤ 0.015
C[C@@H](OC1CCN(c2ccc(F)cn2)CC1)[C@](O)(Cn1cncn1)c1ccc(F)cc1F [Example 114, (2R,3R)-2-(2,4-difluorophenyl)-3-((1-(5-fluoropyridin-2-yl)piperidin-4-yl)oxy)-1-(1H-1,2,4-triazol-1-yl)butan-2-ol] | ≤ 0.015
C[C@@H](OC1CCN(c2ccc(Cl)cn2)CC1)[C@](O)(Cn1cncn1)c1ccc(F)cc1F [Example 115, (2R,3R)-3-((1-(5-chloropyridin-2-yl)piperidin-4-yl)oxy)-2-(2,4-difluorophenyl)-1-(1H-1,2,4-triazol-1-yl)butan-2-ol] | ≤ 0.015
Cc1cc(C(F)(F)F)cnc1N1CCC(O[C@H](C)[C@](O)(Cn2cncn2)c2ccc(F)cc2F)CC1 [Example 116, (2R,3R)-2-(2,4-difluorophenyl)-3-((1-(3-methyl-5-(trifluoromethyl)pyridin-2-yl)piperidin-4-yl)oxy)-1-(1H-1,2,4-triazol-1-yl)butan-2-ol] | ≤ 0.015
C[C@@H](OC1CCN(c2ncc(F)cn2)CC1)[C@](O)(Cn1cncn1)c1ccc(F)cc1F [Example 118, (2R,3R)-2-(2,4-difluorophenyl)-3-((1-(5-fluoropyrimidin-2-yl)piperidin-4-yl)oxy)-1-(1H-1,2,4-triazol-1-yl)butan-2-ol] | ≤ 0.015
